The values below come from publication PMC3528340 (Journal of the American Chemical Society, 2012).

For assay [1], the target named is T1, EcLTA (E. coli L-Thr aldolase, EC 4.1.24) (Escherichia coli, UniProt P75823).
T1 sequence (P75823 1-333): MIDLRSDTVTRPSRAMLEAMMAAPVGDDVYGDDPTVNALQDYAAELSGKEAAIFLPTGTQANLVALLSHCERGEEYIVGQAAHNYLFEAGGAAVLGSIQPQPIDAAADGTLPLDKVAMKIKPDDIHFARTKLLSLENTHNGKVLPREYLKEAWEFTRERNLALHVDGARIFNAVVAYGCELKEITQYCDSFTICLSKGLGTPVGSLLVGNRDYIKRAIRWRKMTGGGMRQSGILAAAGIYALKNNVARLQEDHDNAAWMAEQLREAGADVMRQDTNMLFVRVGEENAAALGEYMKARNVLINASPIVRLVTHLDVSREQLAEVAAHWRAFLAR
In words: aldehyde dehydrogenase-coupled retro-aldol assay, A340. The note with it: L-Thr only, no aldehyde acceptor. Format: biochemical.

Assay [2] has as its target T2, EcGlyA (E. coli SHMT) (Escherichia coli, UniProt P0A825).
T2 sequence (P0A825 1-417): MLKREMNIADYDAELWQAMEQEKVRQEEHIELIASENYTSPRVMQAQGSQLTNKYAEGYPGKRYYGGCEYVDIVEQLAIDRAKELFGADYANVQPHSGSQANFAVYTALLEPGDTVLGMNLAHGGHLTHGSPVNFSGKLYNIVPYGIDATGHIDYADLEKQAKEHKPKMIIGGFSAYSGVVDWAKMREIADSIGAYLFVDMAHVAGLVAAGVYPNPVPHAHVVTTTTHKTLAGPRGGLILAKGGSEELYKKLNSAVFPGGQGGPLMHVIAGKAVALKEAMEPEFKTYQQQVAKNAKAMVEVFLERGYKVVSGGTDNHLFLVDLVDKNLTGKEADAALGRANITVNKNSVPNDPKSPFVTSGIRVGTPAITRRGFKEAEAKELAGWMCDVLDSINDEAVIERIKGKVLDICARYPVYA
Described as above. Format: biochemical. The note with it: L-Thr only, no aldehyde acceptor.

SMILES strings stand for the structures.

With `C[C@@H](O)[C@H](N)C(=O)O` [L-Thr], the specific activity entry in assay [1] was “EcLTA, and EcGlyA were shown to catalyze a retro-aldol-type reaction in the presence of only L-Thr”; in assay [2], “EcLTA, and EcGlyA were shown to catalyze a retro-aldol-type reaction in the presence of only L-Thr”.
